Measured values taken from US20250154193A1, “STEROID COMPOUND, AND PREPARATION METHOD THEREFOR AND APPLICATION THEREOF” (CHOLESGEN (SHANGHAI) CO., LTD., priority 2022, published 2025).

Columns and labels:
Ldlr−/− mice [1] = assay: AMLN diet-induced fatty liver model: liver tissue section analysis; type: in vivo; conditions: 30 mg/kg/day, 8 weeks
Description: Hematoxylin-eosin staining: The extracted liver was fixed in 4% paraformaldehyde at 4° C., embedded in paraffin, sectioned using a paraffin microtome (Leica RM2235) with a section thickness of […], dewaxed, rehydrated, and stained with Hematoxylin-eosin staining kits ([…]. 6,765,001, 6,766,010, Thermo Scientific). The images were captured with an Olympus VS 120 glass microscope, and quantified using ImageJ software. Oil Red 0 staining: The liver was embedded in OCT embedding medium (Leica), sectioned to a thickness of 7 μm using a cryostat microtome (Leica CM1950), stained with Oil Red 0 (00625, Sigma). The images were captured with an Olympus VS 120 glass microscope, and quantified using ImageJ software. Sirius Red collagen staining: Liver paraffin sections were dewaxed, rehydrated, and stained with Sirius Red staining kit (ab150681, Abcam) according to the manufacturer's instructions. Immunofluorescence staining: The liver was embedded in OCT embedding medium (Leica) and sectioned to a thickness of 7 μm using a cryostat microtome (Leica CM1950). Cryostat sections were stained with anti-F4/80 rat monoclonal antibody (14-4801-85, Invitrogen, 1:100) and Alexa Fluor 488-conjugated goat anti-rat IgG secondary antibody (A-11006, Invitrogen, 1:500), and the nuclei were specifically stained with DAPI (Sigma) 30. After staining and sealing, the images were captured using a spinning disk confocal microscope (Nikon CSU-W1 SoRa), and quantified using ImageJ software. Polarized light imaging of cholesterol crystals: Cryostat sections were stained with F4/80 and DAPI. The images were captured using a spinning disk confocal microscope (Nikon CSU-W1 SoRa) equipped with a polarized light filter, and quantified using ImageJ software. Male C57BL/6J mice and male Ldlr^−/− mice (TOO1464, Jiangsu GemPharmatech Co., Ltd.) at 8 weeks of age were purchased, grouped, fed with different diets, and treated with different drugs. The mice were randomly divided into 4 groups with 8 to 9 mice in each group: One group consisted of C57BL/6J wild-type mice, which was the chow diet (CD) vehicle control group. The other three groups consisted of Ldlr^−/− knockout mice, including chow diet (CD) vehicle control group, AMLN diet (containing […], 22% fructose, and 2% cholesterol) vehicle control group, and AMLN diet combined with 25-hydroxylanosterol administration group (25-hydroxylano sterol was administered at a concentration of 30 mg/kg/day). The mice in four groups were intragastrically administered once a day, during which the changes in food intake and body weight of the mice in different treatment groups were counted. After 8 weeks, blood and liver samples were collected from the mice to analyze blood lipids, liver lipids, and liver damage phenotypes. Furthermore, we performed various staining or immunohistochemical procedures on liver tissue sections from the mice in each group to analyze the phenotypic changes in hepatic lipid accumulation and fatty liver. […] FIGS. 14 to 18 show the results of Oil Red O staining and quantification of liver sections of mice: 25-hydroxylanosterol reduced lipid droplets in the liver. FIGS. 19 to 23 show the results of Sirius Red staining and quantification of liver sections of mice: 25-hydroxylanosterol reduced fibrosis in the liver. FIGS. 24 to 29 show the results of F4/80 immunostaining and quantification of liver sections of mice as well as the results of imaging and quantification of polarized light imaging indicating cholesterol crystals: 25-hydroxylanosterol reduced the aggregation of Kupffer cells and formation of cholesterol crystals in the liver. In FIGS. 9 to 29, quantitative analysis was performed using ImageJ software, and data are represented as mean±standard deviation. P values were calculated using one-way ANOVA; * indicates P<0.05; ** indicates P<0.01; *** indicates P<0.001.

Ldlr−/− mice [2] = assay: AMLN diet-induced fatty liver model: body weight, serum and liver metabolic parameters; type: in vivo; conditions: 30 mg/kg/day intragastrically, 8 weeks
Description: Animals: Adult male C57BL/6J mice were purchased from Shanghai SLAC, and low-density lipoprotein receptor knockout mice (Ldlr^−/− mice, T001464) were purchased from Jiangsu GemPharmatech Co., Ltd. Mice were housed in an environment free of pathogens, maintained in a 12-hour light/dark cycle, and had free access to water and feed. The vehicle for oral gavage was 0.5% Tween-80, 0.5% methylcellulose, and 0.9% sodium chloride. AMLN feed (AMLN, Dyets) contains 40% (kcal %) fat (80% of which is trans fat), 22% (mass %) fructose, and 2% (mass %) cholesterol.
After drug treatment, mice were fasted for 4 hours before being euthanized, and blood and liver samples were collected. Blood was coagulated and centrifuged at 1,500 g for 10 minutes at 4° C. to obtain the supernatant (i.e., serum). Lipids from liver were extracted using the chloroform/methanol method. The samples were first homogenized and crushed using a Precelly 24 homogenizer, and centrifuged at 16,000 g for 10 minutes at 4° C. The organic phase was transferred to a new tube, dried with nitrogen, and dissolved in ethanol. Total cholesterol and triglyceride levels in blood and liver were measured by cholesterol and triglyceride kits (Shanghai Kehua Bio-Engineering Co., Ltd.), respectively. ALT (LE-M0477, Lai Er Bio-Tech) and AST (LE-M0568, Lai Er Bio-Tech) levels in serum were measured according to the corresponding manufacturer's manuals, using an analytical system from Sysmex Shanghai Ltd.
Male C57BL/6J mice and male Ldlr^−/− mice (TOO1464, Jiangsu GemPharmatech Co., Ltd.) at 8 weeks of age were purchased, grouped, fed with different diets, and treated with different drugs. The mice were randomly divided into 4 groups with 8 to 9 mice in each group: One group consisted of C57BL/6J wild-type mice, which was the chow diet (CD) vehicle control group. The other three groups consisted of Ldlr^−/− knockout mice, including chow diet (CD) vehicle control group, AMLN diet (containing […], 22% fructose, and 2% cholesterol) vehicle control group, and AMLN diet combined with 25-hydroxylanosterol administration group (25-hydroxylano sterol was administered at a concentration of 30 mg/kg/day). The mice in four groups were intragastrically administered once a day, during which the changes in food intake and body weight of the mice in different treatment groups were counted. After 8 weeks, blood and liver samples were collected from the mice to analyze blood lipids, liver lipids, and liver damage phenotypes.
In FIGS. 1 and 2, P values were calculated using the statistical analysis of two-way ANOVA (Dunnett's multiple comparisons test); * indicates P<0.05; ns indicates no statistical difference. In FIGS. 3 to 8, data are represented as mean±standard deviation. P values were calculated using one-way ANOVA; * indicates P<0.05; ** indicates P<0.01; *** indicates P<0.001.

C[C@H](CCCC(C)(C)O)[C@H]1CC[C@@]2(C)C3=C(CC[C@]12C)[C@@]1(C)CC[C@H](O)C(C)(C)[C@@H]1CC3 [compound 68, (1R,3aR,5aR,7S,9aS,11aR)-1-[(2R)-6-hydroxy-6-methylheptan-2-yl]-3a,6,6,9a,11a-pentamethyl-2,3,3a,4,5,5a,6,7,8,9,9a,10,11,11a-tetradecahydro-1H-cyclopenta[1,2-a]phenanthren-7-ol]
significantly lower: AMLN diet-induced weight gain (Ldlr−/− mice [2]; vs AMLN diet vehicle control)
significantly reduced: crown-like structure formed by Kupffer cells (F4/80 immunostaining) (Ldlr−/− mice [1]) | fibrotic phenotype of collagen fiber formation in liver sections (Sirius Red) (Ldlr−/− mice [1]) | number of cholesterol crystals in liver sections (polarized light imaging) (Ldlr−/− mice [1]) | accumulation of lipid droplets of neutral lipids in the liver (Oil Red O staining) (Ldlr−/− mice [1]; vs control group) | macrovesicular lipid droplets and vesicular degenerated hepatocytes in the liver (HE staining) (Ldlr−/− mice [1]; vs control group) | NAFLD activity scores (Ldlr−/− mice [1]; HE staining of liver sections) | alanine aminotransferase (ALT) in serum (Ldlr−/− mice [2]) | aspartate aminotransferase (AST) in serum (Ldlr−/− mice [2]) | total liver cholesterol levels (Ldlr−/− mice [2]) | total liver triglyceride levels (Ldlr−/− mice [2]) | total cholesterol levels in serum (Ldlr−/− mice [2]; vs control group) | total triglyceride levels in serum (Ldlr−/− mice [2]; vs control group)
